Assay results: PubChem BioAssay AID2060910 (Molecular Pharmacology Branch, DTP, NCI, 2025)

Test system: 242566-281-R-J2-PDC complex spheroid viability
Assay: Anticancer human tumor 242566-281-R-J2-PDC patient-derived pancreatic carcinoma cell line growth inhibition [RAS]
Conditions: for IC50: curve of first compound; for viability, T/C: stronger effect = lower value
Excerpt: RAS pathway inhibitors in Combinations in Complex Spheroids
A high-throughput screen of multi-cell type tumor spheroids was designed to identify active combinations of RAS pathway inhibitors and targeted small molecules. Complex spheroids include a stromal component modeled by human endothelial cells (HUVEC) and fibroblasts modeled by human mesenchymal stem cells (MSCs). The concentration ranges selected for each drug and investigational agent were based upon clinically achievable concentrations if the clinical Cmax of the agent was known.
Compounds. The drugs and investigational agents: abemaciclib (NSC768073), cobimetinib (NSC768068), divarasib (GDC6063, NSC841802), docetaxel (NSC628503), GDC-1971 (RLY-1971, NSC841576), gemcitabine (NSC613327), inavolisib (NSC800729), ipatasertib (NSC767898), KB-0742 (NSC834161), MRTX-1133 (NSC836407), osimertinib (NSC779217), RMC-4630 (NSC839698), RMC-6236 (NSC851965), RMC-6291 (NSC852671), Ro-3306 (NSC812927), sapanisertib (NSC764658), SN-38 (NSC673596), staurosporine (NSC755774), SY5609 (NSC837396), and tovorafenib (DAY101, NSC766906), were obtained from the National Cancer Institute (NCI) Developmental Therapeutics Program Chemical Repository. The FDA-approved anticancer drug set is available from the NCI Developmental Therapeutics Program. […] The stock solutions were prepared in dimethyl sulfoxide (DMSO, Sigma-Aldrich, St. Louis, MO, cat. D2650) at 800-fold the tested concentration and stored at -70 degrees C prior to their use. All drugs and investigational agents were tested over a range starting from a high concentration at or near the clinical Cmax and decreasing in half-log increments. If the clinical Cmax for an agent had not been determined, the highest concentration tested was 10 microM.
Cell Culture. All cells were maintained in an incubator at 37 degrees C and 5% CO2 with 95% humidity. The PDC lines were cultured according to standard operating procedures established by the NCI PDMR. All PDCs were thawed and cultured in Matrigel-coated flasks prepared with a working solution of 1X Ham's F-12 nutrient mix, without supplementation (Invitrogen, Waltham, MA, cat. 11765054), 100 U/mL penicillin-streptomycin (Invitrogen, cat. 15140122), and 2.5% Matrigel (Corning Inc., Corning, NY, cat. 354248) for the first three passages. The 362531-283-R-J2-PDC and 782815-120-R-J1-PDC lines were cultured in 6C/Colon 1B media, which includes advanced DMEM/F-12 (Thermo Fisher Scientific, cat. 12634028), 10 mM HEPES (Thermo Fisher Scientific, cat. 15630080), 1X GlutaMAX supplement (Thermo Fisher Scientific, cat. 35050061), 0.1 mg/mL primocin (InvivoGen, San Diego, CA, cat. ant-pm-2), 10% defined fetal bovine serum, heat inactivated (HyClone Laboratories Inc., Logan, UT, cat. SH30070.03HI), 50% L-WRN conditioned media (ATCC, cat. CRL-3276), 1.25 mM N-Acetyl-L-cysteine (Sigma-Aldrich, cat. A9165), 10 mM nicotinamide (Sigma-Aldrich, cat. N0636), 1X B-27 supplement (Thermo Fisher Scientific, cat. 17504044), 1X N-2 supplement (Thermo Fisher Scientific, cat. 17502048), 50 ng/mL human EGF (Thermo Fisher Scientific, cat. PHG0311), and 10 microM Y-27632 dihydrochloride (Tocris Bioscience, cat. 1254). The K12877-001-R-J1-PDC line was cultured in 6I media, which includes all 6C/Colon 1B media plus 10 ng/mL human FGF-10 (PeproTech, cat. 100-26), 1 ng/mL human FGF-2 (PeproTech, cat. 100-18B), 1 µM prostaglandin E2 (Tocris Bioscience, cat. 2296), […] hydrocortisone (Sigma-Aldrich, cat. H4001), and […] bovine insulin (Sigma-Aldrich, cat. I6634). The K86415-001-R-J1-PDC line was cultured in 6D media, which includes all 6C/Colon 1B media components minus the L-WRN conditioned media. The 485176-168-R4-J1-PDC was cultured in PANC media, which includes all 6C/Colon 1B media plus 100 ng/mL human FGF-10 (PeproTech, cat. 100-26), 500 nM SB-431542 (Selleckchem, cat. S1067), and 10 nM gastrin (Tocris Bioscience, cat. 3006). […]
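Also: spheroids exposed to compound for 7 days before readout.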
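For viability, T/C in this document: 100% = DMSO vehicle control wells.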

IC50 (second compound 0.000949 µM): 918 nM | IC50 (second compound 0.003 µM): 1110 nM | IC50 (second compound 0.00949 µM): 1050 nM | IC50 (second compound 0.03 µM): 963 nM | IC50 (second compound 0.0949 µM): 872 nM | IC50 (second compound 0.3 µM): 329 nM
Compound: CC(Nc1ccc2c(c1)OCCn1cc(N3C(=O)OCC3C(F)F)nc1-2)C(N)=O (configuration not stated) + CCn1c(-c2cccnc2C(C)OC)c2c3cc(ccc31)N1CCOC(CC(NC(=O)C(C(C)C)N(C)C(=O)C3(F)CCN(C(=O)C#CC(C)(C)N(C)C)CC3)C(=O)N3CCCC(N3)C(=O)OCC(C)(C)C2)C1
viability, T/C (second compound 0.000949 µM, first compound 0.0316 µM): 108% | viability, T/C (second compound 0.000949 µM, first compound 0.1 µM): 81.6% | viability, T/C (second compound 0.000949 µM, first compound 0.316 µM): 54.7% | viability, T/C (second compound 0.000949 µM, first compound 1 µM): 55% | viability, T/C (second compound 0.000949 µM, first compound 3.16 µM): 36.5% | viability, T/C (second compound 0.000949 µM, first compound 10 µM): 17.4% | viability, T/C (second compound 0.003 µM, first compound 0.0316 µM): 91.4% | viability, T/C (second compound 0.003 µM, first compound 0.1 µM): 79.4% | viability, T/C (second compound 0.003 µM, first compound 0.316 µM): 64.8% | viability, T/C (second compound 0.003 µM, first compound 1 µM): 51.2% | viability, T/C (second compound 0.003 µM, first compound 3.16 µM): 37.7% | viability, T/C (second compound 0.003 µM, first compound 10 µM): 18.1% | viability, T/C (second compound 0.00949 µM, first compound 0.0316 µM): 101% | viability, T/C (second compound 0.00949 µM, first compound 0.1 µM): 79.8% | viability, T/C (second compound 0.00949 µM, first compound 0.316 µM): 70% | viability, T/C (second compound 0.00949 µM, first compound 1 µM): 54% | viability, T/C (second compound 0.00949 µM, first compound 3.16 µM): 29.9% | viability, T/C (second compound 0.00949 µM, first compound 10 µM): 20.8% | viability, T/C (second compound 0.03 µM, first compound 0.0316 µM): 85.4% | viability, T/C (second compound 0.03 µM, first compound 0.1 µM): 83% | viability, T/C (second compound 0.03 µM, first compound 0.316 µM): 68.8% | viability, T/C (second compound 0.03 µM, first compound 1 µM): 52.3% | viability, T/C (second compound 0.03 µM, first compound 3.16 µM): 26.3% | viability, T/C (second compound 0.03 µM, first compound 10 µM): 22.9% | viability, T/C (second compound 0.0949 µM, first compound 0.0316 µM): 88.8% | viability, T/C (second compound 0.0949 µM, first compound 0.1 µM): 77.9% | viability, T/C (second compound 0.0949 µM, first compound 0.316 µM): 69.9% | viability, T/C (second compound 0.0949 µM, first compound 1 µM): 48.6% | viability, T/C (second compound 0.0949 µM, first compound 3.16 µM): 25.5% | viability, T/C (second compound 0.0949 µM, first compound 10 µM): 17.7% | viability, T/C (second compound 0.3 µM, first compound 0.0316 µM): 77.5% | viability, T/C (second compound 0.3 µM, first compound 0.1 µM): 67.5% | viability, T/C (second compound 0.3 µM, first compound 0.316 µM): 50.4% | viability, T/C (second compound 0.3 µM, first compound 1 µM): 33.1% | viability, T/C (second compound 0.3 µM, first compound 3.16 µM): 22.7% | viability, T/C (second compound 0.3 µM, first compound 10 µM): 16.2%
